The target in this assay is T1, canine TRPM8 (Canis lupus familiaris, UniProt Q1A7N1).
T1 construct: expressed in transfected cells
The assay is described as follows: In Vitro Canine TRPM8 Functional Assay (intracellular Ca2+ fluorescence, icilin activation, HEK293 cells). Type of assay: cell-based. The conditions noted are these: for IC50: HEK293 cells expressing canine TRPM8, icilin activation, individually measured values (batches/salt forms), read-out: IC50 (nM), in vitro TRP M8 Activity; for inhibition at 0.2 µM: individually measured values. How it is done:
The changes in fluorescent signal were monitored by a fluorescence plate reader, either a FLIPR™ (Molecular Devices) or FDSS (Hamamatsu). […] Cells were maintained in 5% CO2 at 37° C. At 24 hr prior to assay, cells were seeded in black wall, clear-base poly-D-lysine coated 384-well plates (BD Biosciences, NJ, USA) at a density of 5,000 cells per well in culture medium and grown overnight in 5% CO2 at 37° C. On assay day, growth media was removed, and cells were loaded with Calcium 3 Dye (Molecular Devices) for 35 min at 37° C., under 5% CO2 and then incubated for 25 min at room temperature and atmosphere. Subsequently, cells were tested for agonist-induced increases in intracellular Ca^2+ levels using FLIPR™ or FDSS. […] Maximal fluorescence intensity (FI) achieved upon addition of icilin was exported from the FLIPR™ or FDSS software and further analyzed using GraphPad Prism 3.02 (Graph Pad Software Inc., CA, U.S.A.). Basal FI was subtracted prior to normalizing data to percent of maximal response. Curves were generated using the average of quadruplicate wells for each data point using nonlinear regression of either sigmoidal dose response or sigmoidal dose response (variable slope). Finally, IC50 values were calculated with the best-fit curve determined by GraphPad Prism

[1] abbreviates: HEK293, 0.2 μM test compound, read-out: % Inh (%) @0.2 μM, in vitro TRP M8 Activity.
Where [2] appears, read: HEK293, read-out: % Inh (%) @0.2 μM, in vitro TRP M8 Activity, 0.2 μM test compound.

As usually defined, the IC50 is the point on the concentration scale where inhibition reaches its midpoint.

Several values for one entry are separate records, joined by “and”; a condition that tells them apart may be missing. Equal values may be shown once. Where a name gives a salt, the structure may show the parent alone. Read-outs that look alike come from different tables or passages of the source.

T1 sequence (Q1A7N1 1-1104): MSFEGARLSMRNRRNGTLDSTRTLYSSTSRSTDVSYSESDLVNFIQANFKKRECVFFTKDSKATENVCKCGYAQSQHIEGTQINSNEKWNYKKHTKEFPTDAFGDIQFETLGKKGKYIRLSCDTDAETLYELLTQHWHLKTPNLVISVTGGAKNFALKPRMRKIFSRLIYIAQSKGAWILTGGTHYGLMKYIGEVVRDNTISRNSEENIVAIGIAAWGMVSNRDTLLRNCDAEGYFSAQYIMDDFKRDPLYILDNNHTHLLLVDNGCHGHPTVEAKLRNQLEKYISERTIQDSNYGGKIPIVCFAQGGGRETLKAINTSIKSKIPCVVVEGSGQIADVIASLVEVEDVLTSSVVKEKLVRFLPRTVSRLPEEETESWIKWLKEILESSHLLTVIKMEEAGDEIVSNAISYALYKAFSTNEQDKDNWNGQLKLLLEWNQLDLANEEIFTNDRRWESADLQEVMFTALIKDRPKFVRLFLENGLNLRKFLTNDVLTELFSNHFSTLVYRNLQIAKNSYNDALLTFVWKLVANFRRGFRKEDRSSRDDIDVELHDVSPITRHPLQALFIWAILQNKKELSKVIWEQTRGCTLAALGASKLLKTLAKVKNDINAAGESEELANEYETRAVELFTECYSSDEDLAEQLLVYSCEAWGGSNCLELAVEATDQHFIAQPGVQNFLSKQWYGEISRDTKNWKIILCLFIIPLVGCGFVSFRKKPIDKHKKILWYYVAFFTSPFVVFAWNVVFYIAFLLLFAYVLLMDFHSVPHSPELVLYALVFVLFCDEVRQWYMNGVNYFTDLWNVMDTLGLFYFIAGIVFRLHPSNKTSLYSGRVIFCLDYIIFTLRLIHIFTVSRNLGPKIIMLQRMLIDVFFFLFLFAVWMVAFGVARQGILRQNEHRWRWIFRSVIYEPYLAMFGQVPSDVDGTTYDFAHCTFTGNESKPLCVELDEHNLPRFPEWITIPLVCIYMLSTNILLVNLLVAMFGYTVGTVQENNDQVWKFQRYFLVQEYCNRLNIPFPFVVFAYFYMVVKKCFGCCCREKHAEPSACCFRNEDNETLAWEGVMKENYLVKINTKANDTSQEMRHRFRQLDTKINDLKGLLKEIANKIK

For `CCOc1ccccc1-c1ccc2[nH]c(-c3cc(C(C)C)no3)nc2c1` [Compound 6, 2-(3-Isopropylisoxazol-5-yl)-5-(2-ethoxyphenyl)-1H-benzimidazole sodium salt], the IC50 stood at 64.4 nM. Take `Cc1oc(C(C)(C)C)cc1-c1nc2cc(-c3ccccc3F)ccc2[nH]1` [Compound 174, 2-(5-tert-Butyl-2-methyl-furan-3-yl)-5-(2-fluoro-phenyl)-1H-benzimidazole sodium salt]: the IC50 was 33.4 nM. Also, under setting [1], the inhibition at 0.2 µM stood at 83%. For `FC(F)(F)Oc1ccccc1-c1ccc2[nH]c(-c3cc(C4CC4)no3)nc2c1` [Compound 17, 2-(3-cyclopropylisoxazol-5-yl)-5-(2-trifluoromethoxyphenyl)-1H-benzimidazole sodium salt], the IC50 stood at 52 nM. On the same count and under the same terms, the figure for `Cc1c(C(C)(C)C)nn(C)c1-c1nc2cc(-c3ccccc3F)ccc2[nH]1` [Compound 93, 2-(5-tert-Butyl-2,4-dimethyl-2H-pyrazol-3-yl)-5-(2-fluoro-phenyl)-1H-benzimidazole hydrochloride] is 10.9 nM; for `CCC(CC)c1cc(-c2nc3ccc(-c4ccccc4C(F)(F)F)cc3[nH]2)on1` [Compound 26, 2-[3-(1-Ethylpropyl)-isoxazol-5-yl]-6-(2-trifluoromethylphenyl)-1H-benzimidazole hydrochloride] it is 39 nM. Regarding `Cc1c(C(C)(C)C)nn(C)c1-c1nc2cc(-c3ccccc3Cl)cc(Cl)c2[nH]1` [Compound 134, 2-(5-tert-Butyl-2,4-dimethyl-2H-pyrazol-3-yl)-7-chloro-5-(2-chloro-phenyl)-1H-benzimidazole hydrochloride], the IC50 is 5.6 nM and 10.9 nM. Also, under setting [1], the inhibition at 0.2 µM was 99%. Turning to `COc1ccc(F)cc1-c1ccc2[nH]c(-c3cc(C(C)(C)C)no3)nc2c1` [Compound 105, 2-(3-tert-Butyl-isoxazol-5-yl)-5-(5-fluoro-2-methoxy-phenyl)-1H-benzimidazole hydrochloride], the IC50 was 16.4 nM.

With `Cc1nc(C(C)(C)C)oc1-c1nc2cc(-c3ccccc3OC(F)(F)F)cc(C(F)(F)F)c2[nH]1` [Compound 176, 2-(2-tert-Butyl-4-methyl-oxazol-5-yl)-5-(2-trifluoromethoxy-phenyl)-7-trifluoromethyl-1H-benzimidazole hydrochloride], the inhibition at 0.2 µM under setting [1] came to 60%.

As for `Cn1nc(C(C)(C)C)c(C(F)(F)F)c1-c1nc2cc(-c3ccccc3OC(F)(F)F)cc(C(F)(F)F)c2[nH]1` [Compound 188, 2-(5-tert-Butyl-2-methyl-4-trifluoromethyl-2H-pyrazol-3-yl)-5-(2-trifluoromethoxy-phenyl)-7-trifluoromethyl-1H-benzimidazole sodium salt], the half-inhibitory concentration (IC50) came out at 35 nM. Under setting [1], the inhibition at 0.2 µM worked out at 99%. On to `COc1cccc(F)c1-c1ccc2[nH]c(-c3cc(C(C)(C)C)no3)nc2c1` [Compound 64, 2-(3-tert-Butyl-isoxazol-5-yl)-5-(2-fluoro-6-methoxy-phenyl)-1H-benzimidazole trifluoroacetic acid salt], for which the IC50 worked out at 8.7 nM. Take `CC(C)(C)c1cc(-c2nc3cc(-c4ccccc4F)cc(C(F)(F)F)c3[nH]2)on1` [Compound 139, 2-(3-tert-Butyl-isoxazol-5-yl)-5-(2-fluoro-phenyl)-7-trifluoromethyl-1H-benzimidazole sodium salt]: the IC50 is 5.6 nM and 12 nM. Under setting [2], the inhibition at 0.2 µM stood at 99%. As to `COc1ccccc1-c1ccc2[nH]c(-c3cc(C4CC4)no3)nc2c1` [Compound 15, 2-(3-cyclopropylisoxazol-5-yl)-5-(2-methoxyphenyl)-1H-benzimidazole sodium salt], the IC50 was 70 nM. As to `Cn1nc(C(C)(C)C)cc1-c1nc2cc(-c3ccccc3OC(F)F)ccc2[nH]1` [Compound 81, 2-(5-tert-Butyl-2-methyl-2H-pyrazol-3-yl)-5-(2-difluoromethoxyphenyl)-1H-benzimidazole hydrochloride], the IC50 was 2 nM and 7 nM. In the case of `Cc1nc(C(C)(C)C)oc1-c1nc2cc(-c3ccccc3Cl)cc(C(F)(F)F)c2[nH]1` [Compound 179, 2-(2-tert-Butyl-4-methyl-oxazol-5-yl)-5-(2-chloro-phenyl)-7-trifluoromethyl-1H-benzimidazole hydrochloride], the inhibition at 0.2 µM under setting [1] is 18%. With `Cc1oc(C(C)(C)C)nc1-c1nc2cc(-c3ccccc3F)cc(C(F)(F)F)c2[nH]1` [Compound 154, 2-(2-tert-Butyl-5-methyl-oxazol-4-yl)-5-(2-fluoro-phenyl)-7-trifluoromethyl-1H-benzimidazole hydrochloride], under setting [1], the inhibition at 0.2 µM came out at 57%. Turning to `Cn1nc(C(C)(C)C)nc1-c1nc2cc(-c3ccccc3C(F)(F)F)cc(C(F)(F)F)c2[nH]1` [Compound 192, 2-(5-tert-Butyl-2-methyl-2H-[1,2,4]triazol-3-yl)-7-trifluoromethyl-5-(2-trifluoromethyl-phenyl)-1H-benzimidazole sodium salt], the IC50 worked out at 7.5 nM. As to `CC(C)n1nc(C(C)(C)C)cc1-c1nc2cc(-c3ccccc3C(F)(F)F)ccc2[nH]1` [Compound 46, 2-(5-tert-Butyl-2-isopropyl-2H-pyrazol-3-yl)-5-(2-trifluoromethylphenyl)-1H-benzimidazole sodium salt], the IC50 worked out at 21 nM. Turning to `Cc1nc(C(C)(C)C)oc1-c1nc2cc(-c3ccccc3F)cc(C(F)(F)F)c2[nH]1` [Compound 175, 2-(2-tert-Butyl-4-methyl-oxazol-5-yl)-5-(2-fluoro-phenyl)-7-trifluoromethyl-1H-benzimidazole hydrochloride], under setting [1], the inhibition at 0.2 µM came out at 48%. For the molecule `Cc1c(C(C)(C)C)nn(C)c1-c1nc2cc(-c3c(F)cccc3OC(F)(F)F)cc(C(F)(F)F)c2[nH]1` [Compound 123, 2-(5-tert-Butyl-2,4-dimethyl-2H-pyrazol-3-yl)-5-(2-fluoro-6-trifluoromethoxy-phenyl)-7-trifluoromethyl-1H-benzimidazole hydrochloride], the half-maximal inhibitory concentration (IC50) amounted to 7.9 nM. For the molecule `CC(C)(C)c1cc(-c2nc3cc(-c4c(F)cccc4F)cc(C(F)(F)F)c3[nH]2)on1` [Compound 140, 2-(3-tert-Butyl-isoxazol-5-yl)-5-(2,6-difluoro-phenyl)-7-trifluoromethyl-1H-benzimidazole sodium salt], the IC50 was 4.5 nM and 7.4 nM. Further, the inhibition at 0.2 µM under setting [2] was found to be 100%.

`Cn1nc(C(C)(C)C)c(C(F)(F)F)c1-c1nc2cc(-c3ccccc3Cl)cc(C(F)(F)F)c2[nH]1` [Compound 186, 2-(5-tert-Butyl-2-methyl-4-trifluoromethyl-2H-pyrazol-3-yl)-5-(2-chloro-phenyl)-7-trifluoromethyl-1H-benzimidazole sodium salt]: the IC50 came to 20 nM. Moreover, the inhibition at 0.2 µM under setting [1] was determined as 99%. As for `Cn1nc(C(C)(C)C)cc1-c1nc2cc(-c3ccccc3OC(F)(F)F)ccc2[nH]1` [Compound 14, 2-(5-tert-Butyl-2-methyl-2H-pyrazol-3-yl)-5-(2-trifluoromethoxyphenyl)-1H-benzimidazole sodium salt], the IC50 amounted to 44 nM. The same measure, in the same setting: the figure for `CC(C)(C)c1cc(-c2nc3cc(-c4c(F)cccc4OC(F)(F)F)ccc3[nH]2)on1` [Compound 103, 2-(3-tert-Butyl-isoxazol-5-yl)-5-(2-fluoro-6-trifluoromethoxy-phenyl)-1H-benzimidazole hydrochloride] is 4.5 nM; for `Cn1nc2c(c1-c1nc3cc(-c4ccccc4Cl)ccc3[nH]1)CCCC2(C)C` [Compound 32, 3-[5-(2-Chlorophenyl)-1H-benzimidazol-2-yl]-2,7,7-trimethyl-4,5,6,7-tetrahydro-2H-indazole sodium salt] it is 21 nM; for `Cc1c(C(C)(C)C)noc1-c1nc2cc(-c3c(F)cccc3C(F)(F)F)ccc2[nH]1` [Compound 111, 2-(3-tert-Butyl-4-methyl-isoxazol-5-yl)-5-(2-fluoro-6-trifluoromethyl-phenyl)-1H-benzimidazole hydrochloride] it is 10.1 nM.

As to `Cn1nc(C(C)(C)C)cc1-c1nc2cc(-c3ccccc3C#N)ccc2[nH]1` [Compound 60, 2-[2-(5-tert-Butyl-2-methyl-2H-pyrazol-3-yl)-1H-benzimidazol-5-yl]-benzonitrile trifluoroacetic acid salt], the concentration for half-maximal inhibition (IC50) stood at 11.9 nM. Turning to `Cc1oc(-c2nc3cc(-c4ccccc4C(F)(F)F)cc(C(F)(F)F)c3[nH]2)nc1C(C)(C)C` [Compound 194, 2-(4-tert-Butyl-5-methyl-oxazol-2-yl)-7-trifluoromethyl-5-(2-trifluoromethyl-phenyl)-1H-benzimidazole hydrochloride], the inhibition at 0.2 µM under setting [1] is 63%. `Cn1nc(C(C)(C)C)c(C#N)c1-c1nc2cc(-c3c(F)cccc3C(F)(F)F)cc(Cl)c2[nH]1` [Compound 172, 3-tert-Butyl-5-[7-chloro-5-(2-fluoro-6-trifluoromethyl-phenyl)-1H-benzimidazol-2-yl]-1-methyl-1H-pyrazole-4-carbonitrile sodium salt]: the IC50 was 8.7 nM. Besides, the inhibition at 0.2 µM under setting [1] stood at 100%.
